{
  "source": "patent US6270799A",
  "about": "“Medicament formulation with a controlled release of an active agent” (Bayer Aktiengesellscahft, priority 1997, dated 2001)",
  "key": {"[1]": {"system": "gram-negative and gram-positive bacteria", "conditions": "against gram-negative and gram-positive bacteria; relative to sparfloxacin and ciprofloxacin; Drugs of the Future 1997, 22 (2): 109/113; cited from earlier work"}, "water solubility": {"test": "water solubility", "type": "physicochemical", "conditions": "compound I and/or its salts and/or hydrates"}, "[2]": {"test": "absorption behaviour in the lower sections of the intestine", "type": "in vivo", "conditions": "in contrast to ciprofloxacin", "source_text": "It was therefore the object of the present invention to develop a drug formulation of the compound I and pharmaceutically tolerable salts thereof and/or their hydrates which meets the requirements described above. […] Only this surprising absorption behaviour of moxifloxacin, which is different from known quinolonecarboxylic acid antibiotics, opens up any possibility of developing a retard formulation of moxifloxacin."}},
  "data": [
    {"smiles": "COc1c(N2C[C@@H]3CCCN[C@@H]3C2)c(F)cc2c(=O)c(C(=O)O)cn(C3CC3)c12", "note": "[compound I, 1-cyclopropyl-7-([S,S]-2,8-diazabicyclo[4.3. 0]non-8-yl)-6-fluoro-1,4-dihydro-8-methoxy-4-oxo-3-quino-lonecarboxylic acid]", "values": [
      {"measurement": "antibacterial action", "setting": "[1]", "result": "frequently significantly better than that of sparfloxacin and ciprofloxacin"},
      {"measurement": "solubility", "setting": "water solubility", "result": "~24", "unit": "mg/mL"}
    ]},
    {"smiles": "COc1c(N2C[C@@H]3CCCN[C@@H]3C2)c(F)cc2c(=O)c(C(=O)O)cn(C3CC3)c12", "note": "[compound II]", "values": [
      {"measurement": "absorption in the lower sections of the intestine (colon, rectum)", "setting": "[2]", "result": "also absorbed in the lower sections of the intestine (colon, rectum)"}
    ]}
  ]
}
